Patent US12516056B2, “Compounds for inhibition of janus kinase 1” (MANKIND PHARMA LTD., priority 2019, dated 2026)

Key:
Recombinant JAK2 = target: T1, Recombinant JAK2 (Homo sapiens, UniProt O60674); assay: JAK biochemical assay (LANCE Ultra TR-FRET), JAK2; conditions: recombinant JAK2, TR-FRET; read-out: Biochemical Assay (μM) JAK2
T1 construct: purchased Carna Biosciences
Protocol: (§1) Recombinant JAK1, JAK2, JAK3 and TYK2 (Carna Biosciences) were used to develop biochemical assays in 50 mM HEPES pH 7.5, 1 mM EGTA, 10 mM MgCl2, 2 mM DTT and 0.01% Tween-20. […] The intensity of the light emission is proportional to the level of ULight substrate phosphorylation. Compounds which interfere with JAK enzyme activity show a lesser substrate phosphorylation and values are projected in terms of % inhibition in comparison to vehicle control.

Recombinant JAK1 = target: T2, Recombinant JAK1 (Homo sapiens, UniProt P23458); assay: JAK biochemical assay (LANCE Ultra TR-FRET), JAK1; conditions: recombinant JAK1, TR-FRET; read-out: Biochemical Assay (μM) JAK1
T2 construct: purchased Carna Biosciences
Protocol: as §1

Recombinant TYK2 = target: T3, Recombinant TYK2 (Homo sapiens, UniProt P29597); assay: JAK biochemical assay (LANCE Ultra TR-FRET), TYK2; conditions: recombinant TYK2, TR-FRET; read-out: Biochemical Assay (μM) TYK2
T3 construct: purchased Carna Biosciences
Protocol: as §1

Recombinant JAK3 = target: T4, Recombinant JAK3 (Homo sapiens, UniProt P52333); assay: JAK biochemical assay (LANCE Ultra TR-FRET), JAK3; conditions: recombinant JAK3, TR-FRET; read-out: Biochemical Assay (μM) JAK3
T4 construct: purchased Carna Biosciences
T4 sequence (P52333 1-1124): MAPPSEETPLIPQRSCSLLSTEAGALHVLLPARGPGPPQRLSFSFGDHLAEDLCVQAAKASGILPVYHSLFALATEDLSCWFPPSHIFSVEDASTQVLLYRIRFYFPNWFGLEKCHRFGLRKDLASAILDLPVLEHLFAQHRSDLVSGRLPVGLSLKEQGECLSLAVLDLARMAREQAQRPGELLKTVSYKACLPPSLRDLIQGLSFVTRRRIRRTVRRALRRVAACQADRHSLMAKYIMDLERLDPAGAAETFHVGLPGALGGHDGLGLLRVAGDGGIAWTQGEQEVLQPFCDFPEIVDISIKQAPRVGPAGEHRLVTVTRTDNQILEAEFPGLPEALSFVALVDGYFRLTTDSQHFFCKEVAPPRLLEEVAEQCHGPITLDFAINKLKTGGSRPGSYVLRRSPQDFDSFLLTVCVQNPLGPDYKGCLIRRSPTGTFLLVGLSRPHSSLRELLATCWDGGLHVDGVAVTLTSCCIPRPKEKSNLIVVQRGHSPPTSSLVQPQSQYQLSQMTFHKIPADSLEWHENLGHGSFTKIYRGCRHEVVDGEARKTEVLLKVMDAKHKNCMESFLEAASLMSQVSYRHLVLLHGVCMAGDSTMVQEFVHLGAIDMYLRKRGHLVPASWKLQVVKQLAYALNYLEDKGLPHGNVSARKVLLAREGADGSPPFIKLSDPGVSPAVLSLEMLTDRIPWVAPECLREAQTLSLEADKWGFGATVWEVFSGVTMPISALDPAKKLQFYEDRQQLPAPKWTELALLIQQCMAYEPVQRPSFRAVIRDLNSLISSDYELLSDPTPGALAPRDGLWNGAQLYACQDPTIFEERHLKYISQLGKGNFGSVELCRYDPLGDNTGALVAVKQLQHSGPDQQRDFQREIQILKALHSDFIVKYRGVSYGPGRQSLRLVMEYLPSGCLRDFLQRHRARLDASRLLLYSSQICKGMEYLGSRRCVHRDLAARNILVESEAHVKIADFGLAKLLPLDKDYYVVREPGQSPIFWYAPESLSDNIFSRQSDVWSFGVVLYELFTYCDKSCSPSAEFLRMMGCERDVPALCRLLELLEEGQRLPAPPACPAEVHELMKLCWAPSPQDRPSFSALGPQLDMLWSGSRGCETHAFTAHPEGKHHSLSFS
Protocol: as §1

T2 sequence (P23458 whole entry): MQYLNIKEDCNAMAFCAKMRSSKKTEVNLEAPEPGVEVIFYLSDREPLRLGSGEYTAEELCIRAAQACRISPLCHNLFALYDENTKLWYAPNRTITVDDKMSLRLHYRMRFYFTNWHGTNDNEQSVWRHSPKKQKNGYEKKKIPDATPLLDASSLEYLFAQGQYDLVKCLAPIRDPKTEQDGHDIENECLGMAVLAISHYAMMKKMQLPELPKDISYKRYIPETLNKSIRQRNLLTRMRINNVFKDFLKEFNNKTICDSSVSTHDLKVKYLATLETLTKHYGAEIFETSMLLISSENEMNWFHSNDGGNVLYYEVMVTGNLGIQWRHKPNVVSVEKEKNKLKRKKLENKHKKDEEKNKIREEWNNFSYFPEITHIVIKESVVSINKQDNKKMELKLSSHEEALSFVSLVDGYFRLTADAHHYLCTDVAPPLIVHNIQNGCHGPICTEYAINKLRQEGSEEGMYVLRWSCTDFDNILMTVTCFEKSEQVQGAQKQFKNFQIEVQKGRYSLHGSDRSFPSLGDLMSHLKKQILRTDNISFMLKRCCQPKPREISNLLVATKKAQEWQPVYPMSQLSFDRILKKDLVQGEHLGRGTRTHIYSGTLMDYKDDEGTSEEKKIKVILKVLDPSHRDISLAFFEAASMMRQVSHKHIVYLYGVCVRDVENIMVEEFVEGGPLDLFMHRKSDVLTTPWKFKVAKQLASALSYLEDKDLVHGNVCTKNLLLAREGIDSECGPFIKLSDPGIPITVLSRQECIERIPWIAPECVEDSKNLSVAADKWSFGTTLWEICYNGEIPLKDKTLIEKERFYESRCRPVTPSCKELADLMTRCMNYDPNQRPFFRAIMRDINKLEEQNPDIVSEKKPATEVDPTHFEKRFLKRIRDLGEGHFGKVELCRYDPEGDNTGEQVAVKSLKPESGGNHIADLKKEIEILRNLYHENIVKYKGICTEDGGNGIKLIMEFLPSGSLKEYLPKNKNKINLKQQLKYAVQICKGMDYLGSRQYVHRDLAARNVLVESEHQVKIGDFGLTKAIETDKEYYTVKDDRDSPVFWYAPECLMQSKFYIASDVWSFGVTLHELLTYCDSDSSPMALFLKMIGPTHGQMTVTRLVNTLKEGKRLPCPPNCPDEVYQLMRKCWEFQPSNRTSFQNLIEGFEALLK
T3 sequence (P29597 whole entry): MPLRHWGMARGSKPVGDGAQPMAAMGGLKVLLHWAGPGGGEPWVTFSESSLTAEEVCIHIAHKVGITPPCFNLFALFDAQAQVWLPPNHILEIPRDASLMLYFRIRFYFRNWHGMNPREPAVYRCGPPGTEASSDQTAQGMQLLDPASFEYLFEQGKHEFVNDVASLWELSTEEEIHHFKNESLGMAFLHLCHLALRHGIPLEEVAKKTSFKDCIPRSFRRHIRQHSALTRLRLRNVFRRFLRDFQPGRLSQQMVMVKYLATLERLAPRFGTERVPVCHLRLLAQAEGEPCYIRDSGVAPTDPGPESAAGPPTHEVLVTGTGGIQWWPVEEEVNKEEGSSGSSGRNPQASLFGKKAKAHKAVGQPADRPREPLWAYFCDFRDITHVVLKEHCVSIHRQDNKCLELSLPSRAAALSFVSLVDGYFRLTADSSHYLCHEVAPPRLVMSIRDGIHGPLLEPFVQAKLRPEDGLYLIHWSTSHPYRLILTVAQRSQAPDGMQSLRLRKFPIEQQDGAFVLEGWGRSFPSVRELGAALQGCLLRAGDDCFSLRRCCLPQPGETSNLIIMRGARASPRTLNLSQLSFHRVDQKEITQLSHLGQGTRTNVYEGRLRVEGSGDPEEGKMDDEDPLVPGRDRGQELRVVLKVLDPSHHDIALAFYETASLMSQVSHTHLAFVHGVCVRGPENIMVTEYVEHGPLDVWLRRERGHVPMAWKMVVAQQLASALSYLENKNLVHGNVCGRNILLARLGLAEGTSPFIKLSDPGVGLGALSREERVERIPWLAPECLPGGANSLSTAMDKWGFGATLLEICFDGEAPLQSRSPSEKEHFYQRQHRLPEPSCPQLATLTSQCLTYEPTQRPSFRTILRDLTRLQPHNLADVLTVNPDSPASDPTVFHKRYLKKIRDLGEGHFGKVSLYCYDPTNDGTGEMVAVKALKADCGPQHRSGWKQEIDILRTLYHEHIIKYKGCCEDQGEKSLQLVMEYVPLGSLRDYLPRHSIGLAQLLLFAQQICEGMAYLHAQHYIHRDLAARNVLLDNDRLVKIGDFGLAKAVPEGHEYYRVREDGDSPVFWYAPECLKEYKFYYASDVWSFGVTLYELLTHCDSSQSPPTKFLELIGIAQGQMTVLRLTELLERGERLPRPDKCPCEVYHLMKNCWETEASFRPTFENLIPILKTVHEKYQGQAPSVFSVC
T1 sequence (O60674 whole entry): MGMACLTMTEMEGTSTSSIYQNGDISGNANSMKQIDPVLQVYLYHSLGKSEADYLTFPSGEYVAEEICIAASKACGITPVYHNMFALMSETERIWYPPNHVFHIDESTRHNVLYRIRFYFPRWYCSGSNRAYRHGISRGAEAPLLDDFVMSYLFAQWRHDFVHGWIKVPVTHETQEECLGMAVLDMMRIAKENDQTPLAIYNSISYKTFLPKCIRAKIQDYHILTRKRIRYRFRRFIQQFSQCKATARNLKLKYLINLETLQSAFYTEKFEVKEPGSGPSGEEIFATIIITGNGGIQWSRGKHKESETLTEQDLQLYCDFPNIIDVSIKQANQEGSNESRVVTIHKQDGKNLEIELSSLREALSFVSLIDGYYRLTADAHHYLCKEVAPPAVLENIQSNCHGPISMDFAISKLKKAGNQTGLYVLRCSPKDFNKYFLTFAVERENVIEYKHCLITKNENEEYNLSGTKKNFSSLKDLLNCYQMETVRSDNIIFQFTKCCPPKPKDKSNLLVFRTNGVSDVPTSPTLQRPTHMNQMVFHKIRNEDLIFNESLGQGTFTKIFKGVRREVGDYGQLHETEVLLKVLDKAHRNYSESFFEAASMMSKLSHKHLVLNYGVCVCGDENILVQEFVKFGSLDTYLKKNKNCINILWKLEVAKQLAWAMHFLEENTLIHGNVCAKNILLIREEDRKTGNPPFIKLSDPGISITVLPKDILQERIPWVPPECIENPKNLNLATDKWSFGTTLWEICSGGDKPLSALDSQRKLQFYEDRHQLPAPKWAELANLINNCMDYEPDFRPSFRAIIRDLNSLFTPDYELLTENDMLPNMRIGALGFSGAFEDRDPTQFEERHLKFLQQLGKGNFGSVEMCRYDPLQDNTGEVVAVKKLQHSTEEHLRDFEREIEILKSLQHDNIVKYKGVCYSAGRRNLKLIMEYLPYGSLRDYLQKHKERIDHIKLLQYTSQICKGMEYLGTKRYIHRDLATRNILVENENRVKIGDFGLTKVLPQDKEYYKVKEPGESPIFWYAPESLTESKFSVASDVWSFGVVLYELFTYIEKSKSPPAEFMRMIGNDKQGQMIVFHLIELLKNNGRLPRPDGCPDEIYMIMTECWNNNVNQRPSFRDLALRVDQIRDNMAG

Row | Compound | IC50 (Recombinant JAK2) [µM] | IC50 (Recombinant JAK1) [µM] | IC50 (Recombinant TYK2) [µM] | IC50 (Recombinant JAK3) [µM]
1 | CCCS(=O)(=O)NC1CCN(C(=O)n2cc(-c3ccnc4[nH]cnc34)cn2)C1 (stereo not shown) [Example 1069, N-(1-(4-(3H-imidazo[4,5-b]pyridin-7-yl)-1H-pyrazole-1-carbonyl)pyrrolidin-3-yl)propane-1-sulfonamide] | > 1 | > 10 | > 1 | > 0.5
2 | N#Cc1ccc(-n2cc(-c3ccnc4[nH]cnc34)cn2)nc1 [Example 1079, 6-(4-(3H-imidazo[4,5-b]pyridin-7-yl)-1H-pyrazol-1-yl)pyridine-3-carbonitrile] | > 1 | > 10 | > 10 | > 1
3 | c1cc(-c2cnn(-c3ccc(CN4CCOCC4)cn3)c2)c2nc[nH]c2n1 [Example 1085, 7-(1-(5-(morpholinomethyl)pyridin-2-yl)-1H-pyrazol-4-yl)-3H-imidazo[4,5-b]pyridine] | > 1 | > 1 | > 10 | > 1
4 | N#CC1CN(Cc2ccc(-n3cc(-c4ccnc5[nH]cnc45)cn3)nc2)C1 [Example 1087, 1-((6-(4-(3H-imidazo[4,5-b]pyridin-7-yl)-1H-pyrazol-1-yl)pyridin-3-yl)methyl)azetidine-3-carbonitrile] | > 1 | > 0.5 | > 10 | > 1
5 | N#CCNC(=O)c1ccc(-n2cc(-c3ccnc4[nH]cnc34)cn2)nc1 [Example 1088, 6-(4-(3H-imidazo[4,5-b]pyridin-7-yl)-1H-pyrazol-1-yl)-N-(cyanomethyl)pyridine-3-carboxamide] | > 1 | > 1 | > 1 | > 1
6 | N#CCC(=O)NCc1ccc(-n2cc(-c3ccnc4[nH]cnc34)cn2)nc1 [Example 1091, N-((6-(4-(3H-imidazo[4,5-b]pyridin-7-yl)-1H-pyrazol-1-yl)pyridin-3-yl)methyl)-2-cyanoacetamide] | > 1 | > 0.5 | > 10 | > 0.5
7 | O=C(Cc1ccc(-n2cc(-c3ccnc4[nH]cnc34)cn2)nc1)NCC(F)(F)F [Example 1092, 2-(6-(4-(3H-imidazo[4,5-b]pyridin-7-yl)-1H-pyrazol-1-yl)pyridin-3-yl)-N-(2,2,2-trifluoroethyl)acetamide] | > 1 | > 1 | > 1 | > 1
8 | O=C(NCC(F)(F)F)n1cc(-c2ccnc3[nH]c(C4CC4)nc23)cn1 [Example 1096, 4-(2-cyclopropyl-3H-imidazo[4,5-b]pyridin-7-yl)-N-(2,2,2-trifluoroethyl)-1H-pyrazole-1-carboxamide] | > 1 | > 10 | > 10 | > 1
9 | CC(=O)N1CCC(c2nc3c(-c4cnn(C(=O)NCC(F)(F)F)c4)ccnc3[nH]2)CC1 [Example 1098, 4-(2-(1-acetylpiperidin-4-yl)-3H-imidazo[4,5-b]pyridin-7-yl)-N-(2,2,2-trifluoroethyl)-1H-pyrazole-1-carboxamide] | > 1 | > 1 | > 10 | > 1
10 | N#CC(c1ccc(-n2cc(-c3ccnc4[nH]cnc34)cn2)nc1)C1CC1 (stereo not shown) [Example 1110, 2-(6-(4-(3H-imidazo[4,5-b]pyridin-7-yl)-1H-pyrazol-1-yl)pyridin-3-yl)-2-cyclopropylacetonitrile] | > 0.5 | > 0.1 | > 1 | > 0.1
11 | CS(=O)(=O)N1CC(C(C#N)c2ccc(-n3cc(-c4ccnc5[nH]cnc45)cn3)nc2)C1 (stereo not shown) [Example 1115, 2-(6-(4-(3H-imidazo[4,5-b]pyridin-7-yl)-1H-pyrazol-1-yl)pyridin-3-yl)-2-(1-(methylsulfonyl)azetidin-3-yl)acetonitrile] | > 0.5 | > 0.5 | > 1 | > 0.5
12 | CC(C)OC(c1ccc(-n2cc(-c3ccnc4[nH]cnc34)cn2)nc1)C(F)(F)F (stereo not shown) [Example 1124, 7-(1-(5-(2,2,2-trifluoro-1-isopropoxyethyl)pyridin-2-yl)-1H-pyrazol-4-yl)-3H-imidazo[4,5-b]pyridine] | > 1 | > 1 | > 1 | > 0.5

Next, values leading:

Row | IC50 (Recombinant JAK2) [µM] | IC50 (Recombinant JAK1) [µM] | IC50 (Recombinant TYK2) [µM] | IC50 (Recombinant JAK3) [µM] | Compound
13 | < 0.5 | < 0.5 | < 0.5 | < 0.5 | N#CCC(NC(=O)n1cc(-c2ccnc3[nH]c(=O)[nH]c23)cn1)C1CCOCC1 (stereo not shown) [Example 1062, N-(2-cyano-1-(tetrahydro-2H-pyran-4-yl)ethyl)-4-(2,3-dihydro-2-oxo-1H-imidazo[4,5-b]pyridin-7-yl)-1H-pyrazole-1-carboxamide]
14 | < 0.5 | > 0.5 | < 0.5 | > 0.5 | N#CC(NC(=O)n1cc(-c2ccnc3[nH]c(=O)[nH]c23)cn1)c1ccccc1 (stereo not shown) [Example 1063, N-(cyano(phenyl)methyl)-4-(2,3-dihydro-2-oxo-1H-imidazo[4,5-b]pyridin-7-yl)-1H-pyrazole-1-carboxamide]
15 | < 0.5 | > 0.5 | > 0.5 | > 0.5 | N#CCC(NC(=O)n1cc(-c2ccnc3[nH]cnc23)cn1)C1CCOCC1 (stereo not shown) [Example 1065, N-(2-cyano-1-(tetrahydro-2H-pyran-4-yl)ethyl)-4-(3H-imidazo[4,5-b]pyridin-7-yl)-1H-pyrazole-1-carboxamide]
16 | > 0.5 | > 0.5 | > 1 | < 0.5 | OCc1ccc(-n2cc(-c3ccnc4[nH]cnc34)cn2)nc1 [Example 1083, (6-(4-(3H-imidazo[4,5-b]pyridin-7-yl)-1H-pyrazol-1-yl)pyridin-3-yl)methanol]
17 | > 0.5 | > 0.5 | > 1 | > 1 | N#CC1CN(C(=O)c2ccc(-n3cc(-c4ccnc5[nH]cnc45)cn3)nc2)C1 [Example 1089, 1-(6-(4-(3H-imidazo[4,5-b]pyridin-7-yl)-1H-pyrazol-1-yl)nicotinoyl)azetidine-3-carbonitrile]
18 | < 0.5 | > 0.5 | > 10 | < 0.5 | N#CCNC(=O)c1cnc(-n2cc(-c3ccnc4[nH]cnc34)cn2)nc1 [Example 1093, 2-(4-(3H-imidazo[4,5-b]pyridin-7-yl)-1H-pyrazol-1-yl)-N-(cyanomethyl)pyrimidine-5-carboxamide]
19 | < 1 | < 1 | > 10 | < 1 | CCOc1nc2c(-c3cnn(C(=O)NCC(F)(F)F)c3)ccnc2[nH]1 [Example 1095, 4-(2-ethoxy-3H-imidazo[4,5-b]pyridin-7-yl)-N-(2,2,2-trifluoroethyl)-1H-pyrazole-1-carboxamide]
20 | > 0.5 | > 10 | > 1 | > 10 | COc1cc(-c2nc3c(-c4cnn(C5COCCC5C#N)c4)ccnc3[nH]2)ccc1Cl (stereo not shown) [Example 1097, 3-(4-(2-(4-chloro-3-methoxyphenyl)-3H-imidazo[4,5-b]pyridin-7-yl)-1H-pyrazol-1-yl)-tetrahydro-2H-pyran-4-carbonitrile]
21 | < 0.5 | > 1 | > 1 | < 0.5 | N#CCc1ccc(-n2cc(-c3ccnc4[nH]cnc34)cn2)cc1F [Example 1104, 2-(4-(4-(3H-imidazo[4,5-b]pyridin-7-yl)-1H-pyrazol-1-yl)-2-fluorophenyl)acetonitrile]
22 | > 0.5 | > 1 | > 10 | > 0.5 | COc1cc(-n2cc(-c3ccnc4[nH]cnc34)cn2)ccc1CC#N [Example 1105, 2-(4-(4-(3H-imidazo[4,5-b]pyridin-7-yl)-1H-pyrazol-1-yl)-2-methoxyphenyl)acetonitrile]
